From patent US11149008B2, “Sulfamide derivatives and preparation method and use thereof” (HitGen Ltd., priority 2015, dated 2021)

Columns and labels:
Type in all cases: biochemical
HDAC 1 = HDAC 1 (Homo sapiens, UniProt Q13547); assay: Enzyme activity detection of histone deacetylase 1 (fluorogenic substrate deacetylation); details: 0.28 ng/μL HDAC 1, 10 μM substrate; IC50 class
Excerpt: (§1) During the deacetylation detection of a substrate, the HDAC inhibition activity of the compound of the present invention was detected.
C: Enzyme Activity Detection of Histone Deacetylase 1
(§2) Acetyl on the substrate was removed by the HDAC 1, so that the substrate was activated, and the developing liquid added subsequently could act on the substrate to release the fluorescent group. The size of the fluorescence signal reflected the activity of the HDAC 1. The IC50 detection method for this enzyme was disclosed in Chuping Xu, Elisabetta Soragni Improved Histone Deacetylase Inhibitors as Therapeutics for the Neurdegenerative Disease Friedreich's Ataxia: A New Synthetic Route. The total reaction system (100 μL/well) contained 0.28 ng/μL of HDAC 1, 10 μM of the substrate and the compound in different concentrations. The fluorescence signal was detected online at Ex/Em=360/460. The inhibition effect of the compound was determined from the obtained data, a concentration response curve was obtained by using the inhibition effect and the concentration of the compound, and the value of IC50 was fitted according to a four-parameter model.
(§3) The activities of the compounds prepared in the embodiments against the histone deacetylases 1, 3 and 6 (i.e., HDAC 1, HDAC 3 and HDAC 6) were detected by the above methods, and the test results were shown in Table 2, where the measurements of IC50 of the compounds were classified according to the following description: […]

HDAC 3 = target: T1, HDAC 3 (Homo sapiens, UniProt O15379); assay: Enzyme activity detection of histone deacetylase 3 (fluorogenic substrate deacetylation); details: 0.16 ng/μL HDAC 3, 10 μM substrate; IC50 class
T1 construct: purchased BPS Bioscience #50003
T1 sequence (O15379 whole entry): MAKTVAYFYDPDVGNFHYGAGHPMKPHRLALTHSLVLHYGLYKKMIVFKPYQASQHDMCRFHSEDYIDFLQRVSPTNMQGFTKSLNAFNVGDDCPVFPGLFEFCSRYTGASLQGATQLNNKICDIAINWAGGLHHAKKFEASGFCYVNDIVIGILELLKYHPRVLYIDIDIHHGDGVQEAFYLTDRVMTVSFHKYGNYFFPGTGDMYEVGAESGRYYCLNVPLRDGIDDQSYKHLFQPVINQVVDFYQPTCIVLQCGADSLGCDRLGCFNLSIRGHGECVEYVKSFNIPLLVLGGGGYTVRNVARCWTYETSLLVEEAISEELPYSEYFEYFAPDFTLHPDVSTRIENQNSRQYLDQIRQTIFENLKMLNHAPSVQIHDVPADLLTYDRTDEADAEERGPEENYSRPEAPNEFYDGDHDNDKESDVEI
T1 sequence (Q9Y618 395-489 partner limits assumed): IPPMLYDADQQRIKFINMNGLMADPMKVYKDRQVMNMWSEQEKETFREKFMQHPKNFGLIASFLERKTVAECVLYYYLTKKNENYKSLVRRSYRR
Excerpt: as §1
B: Enzyme Activity Detection of Histone Deacetylase 3 (#50003, BPS Bioscience)
as §2, with “3,” for “1,”, “3.” for “1.”, “0.16” for “0.28”
as §3

HDAC 6 = target: T2, HDAC 6 (Homo sapiens, UniProt Q9UBN7); assay: Enzyme activity detection of histone deacetylase 6 (fluorogenic substrate deacetylation); details: 0.35 ng/μL HDAC 6, 20 μM substrate, 30 min at 37° C.; IC50 class
T2 construct: purchased BPS Bioscience #50076
T2 sequence (Q9UBN7 1-1215): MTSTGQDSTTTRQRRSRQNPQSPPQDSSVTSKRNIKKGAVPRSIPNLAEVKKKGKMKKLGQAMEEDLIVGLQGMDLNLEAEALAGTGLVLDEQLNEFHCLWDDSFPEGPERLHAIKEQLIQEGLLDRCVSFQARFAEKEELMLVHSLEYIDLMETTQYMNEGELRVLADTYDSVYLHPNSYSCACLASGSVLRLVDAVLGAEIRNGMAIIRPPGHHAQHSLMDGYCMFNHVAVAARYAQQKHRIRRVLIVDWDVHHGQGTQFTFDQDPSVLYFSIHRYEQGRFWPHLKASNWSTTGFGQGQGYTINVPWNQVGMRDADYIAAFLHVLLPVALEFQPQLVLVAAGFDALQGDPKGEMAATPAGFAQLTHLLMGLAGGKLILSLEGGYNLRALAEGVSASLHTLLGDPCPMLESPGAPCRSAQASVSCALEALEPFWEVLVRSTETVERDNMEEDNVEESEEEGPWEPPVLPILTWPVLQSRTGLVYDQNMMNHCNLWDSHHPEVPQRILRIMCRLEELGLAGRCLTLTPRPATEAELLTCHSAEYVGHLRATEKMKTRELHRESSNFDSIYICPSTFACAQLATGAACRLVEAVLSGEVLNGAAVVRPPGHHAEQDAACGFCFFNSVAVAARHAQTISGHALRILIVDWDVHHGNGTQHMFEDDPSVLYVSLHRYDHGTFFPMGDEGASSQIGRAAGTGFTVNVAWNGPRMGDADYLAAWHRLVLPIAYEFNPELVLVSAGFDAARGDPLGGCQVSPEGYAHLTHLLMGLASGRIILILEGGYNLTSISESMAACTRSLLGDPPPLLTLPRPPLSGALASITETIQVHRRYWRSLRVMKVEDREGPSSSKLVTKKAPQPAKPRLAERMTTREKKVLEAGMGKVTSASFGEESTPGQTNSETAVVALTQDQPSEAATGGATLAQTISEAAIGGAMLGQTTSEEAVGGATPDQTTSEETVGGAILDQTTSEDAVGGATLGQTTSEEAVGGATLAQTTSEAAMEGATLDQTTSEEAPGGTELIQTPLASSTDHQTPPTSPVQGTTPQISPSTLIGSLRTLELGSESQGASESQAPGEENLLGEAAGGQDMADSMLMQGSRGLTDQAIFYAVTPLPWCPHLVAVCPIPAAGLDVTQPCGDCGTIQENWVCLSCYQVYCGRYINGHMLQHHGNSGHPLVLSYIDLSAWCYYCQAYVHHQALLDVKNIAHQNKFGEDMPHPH
Excerpt: as §1
A: Enzyme Activity Detection of Histone Deacetylase 6 (#50076, BPS Bioscience)
Acetyl on the substrate was removed by the HDAC 6, so that the substrate was activated, and the developing liquid added subsequently could act on the substrate to release the fluorescent group. The size of the fluorescence signal reflected the activity of the HDAC 6. The IC50 detection method for this enzyme was disclosed in Chuping Xu, Elisabetta Soragni Improved Histone Deacetylase Inhibitors as Therapeutics for the Neurdegenerative Disease Friedreich's Ataxia: A New Synthetic Route. The total reaction system (100 μL/well) contained 0.35 ng/μL of HDAC 6, 20 μM of the substrate and the compound in different concentrations. The reaction system was incubated for 30 min at 37° C., and the fluorescence signal was then measured. The inhibition effect of the compound was determined from the obtained data, a concentration response curve was obtained by using the inhibition effect and the concentration of the compound, and the value of IC50 was fitted according to a four-parameter model.
as §3

Measured: IC50

HDAC 1, sequence (Q13547 whole entry, species assumed): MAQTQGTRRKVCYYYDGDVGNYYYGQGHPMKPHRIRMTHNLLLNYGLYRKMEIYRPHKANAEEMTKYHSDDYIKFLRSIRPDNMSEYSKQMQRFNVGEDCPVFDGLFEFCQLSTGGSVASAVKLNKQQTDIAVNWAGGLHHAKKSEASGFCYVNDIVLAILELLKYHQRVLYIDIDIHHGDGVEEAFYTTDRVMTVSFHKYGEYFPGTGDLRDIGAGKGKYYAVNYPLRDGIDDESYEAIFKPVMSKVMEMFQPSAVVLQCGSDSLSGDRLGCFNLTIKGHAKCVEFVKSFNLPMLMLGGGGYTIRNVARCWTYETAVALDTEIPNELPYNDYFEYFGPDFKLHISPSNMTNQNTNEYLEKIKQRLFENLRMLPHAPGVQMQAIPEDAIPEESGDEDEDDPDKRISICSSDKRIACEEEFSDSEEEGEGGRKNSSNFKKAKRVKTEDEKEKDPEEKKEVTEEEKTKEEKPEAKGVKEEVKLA

CN1CCN(c2ccc(-c3ccc(S(=O)(=O)N4CC=C(C(=O)NO)CC4)cc3)cc2)CC1 [Compound 29, N-hydroxyl-1-((4′-(4-methylpiperazinyl)-[1,1′-biphenyl]-4-yl)sulfonyl)-1,2,3,6-tetrahydropyridine-4-formamide]
< 100 nM: all assays above
